These results are taken from US20230071840A1, “HETEROCYCLIC GLP-1 AGONISTS” (Gasherbrum Bio, Inc., priority 2020, published 2023).

Like-named read-outs stand apart in the source and are kept apart here.

For this assay, the target named is GLP-1 Receptor (Homo sapiens, UniProt P43220). As to the kind of experiment: GLP-1R agonist cAMP stimulation assay (HEK293/GLP1R/CRE-LUC cells, cAMP dynamic 2 kit). Type of assay: cell-based. As to conditions: HEK293/CRE-Luc cell line stably expressing the GLP-1 Receptor, 30 min incubation at 37° C. In short, it runs like this:
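HEK293/CRE-Luc cells stably expressing human GLP-1R stimulated 30 min at 37 °C, 5% CO2. cAMP detected with HTRF cAMP-d2/anti-cAMP cryptate reagents after 1 h at room temperature; % activity normalised between vehicle and maximal control.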

Setting [1] is: read-out: GLP1R cAMP Stimulation DR: EC50.
The mark [2] stands for this setting: read-out: GLP1R cAMP Stimulation DR: pEC50 (converted).

Sequence of GLP-1 Receptor (P43220 24-463, species assumed): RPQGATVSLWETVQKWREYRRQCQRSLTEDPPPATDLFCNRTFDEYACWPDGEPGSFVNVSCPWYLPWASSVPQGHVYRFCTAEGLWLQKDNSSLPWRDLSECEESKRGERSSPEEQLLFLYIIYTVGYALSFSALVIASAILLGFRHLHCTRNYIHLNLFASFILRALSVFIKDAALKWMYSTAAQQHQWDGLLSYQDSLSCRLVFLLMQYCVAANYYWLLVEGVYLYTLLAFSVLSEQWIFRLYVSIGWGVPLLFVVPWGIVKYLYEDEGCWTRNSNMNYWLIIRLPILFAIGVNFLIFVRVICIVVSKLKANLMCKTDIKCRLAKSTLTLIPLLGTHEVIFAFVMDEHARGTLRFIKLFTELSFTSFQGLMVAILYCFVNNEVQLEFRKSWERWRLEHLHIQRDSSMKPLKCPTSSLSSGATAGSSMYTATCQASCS

For `O=C(O)c1ccc2nc(CN3CCC(Oc4nn(Cc5ccc(Cl)cc5F)cc4Cl)CC3)n(C[C@@H]3CCO3)c2n1` [Compound 183a, 2-{[4-({4-chloro-1-[(4-chloro-2-fluorophenyl)methyl]-1H-pyrazol-3-yl}oxy)piperidin-1-yl]methyl}-3-{[(2S)-oxetan-2-yl]methyl}-3H-imidazo[4,5-b]pyridine-5-carboxylic acid], under setting [1], the EC50 stood at 0.85 nM.

Regarding `O=C(O)c1ccc2nc(CN3CCC(Oc4cnn(Cc5ccc(Cl)cc5F)c4)CC3)n(C[C@@H]3CCO3)c2n1` [Compound 184a, 2-{[4-({1-[(4-chloro-2-fluorophenyl)methyl]-1H-pyrazol-4-yl}oxy)piperidin-1-yl]methyl}-3-{[(2S)-oxetan-2-yl]methyl}-3H-imidazo[4,5-b]pyridine-5-carboxylic acid], the EC50 runs as follows: under setting [1], 90 nM; under setting [2], 100 nM.

Turning to `O=C(O)c1ccc2nc(CN3CCC(n4ncc5ccc(Cc6ccc(Cl)cc6F)nc54)CC3)n(C[C@@H]3CCO3)c2n1` [Compound 185a, 2-[(4-{6-[(4-chloro-2-fluorophenyl)methyl]-1H-pyrazolo[3,4-b]pyridin-1-yl}piperidin-1-yl)methyl]-3-{[(2S)-oxetan-2-yl]methyl}-3H-imidazo[4,5-b]pyridine-5-carboxylic acid], the EC50 under setting [1] was found to be 0.47 nM.

With `O=C(O)c1ccc2nc(Cc3ccc(Oc4ccnc(Cc5ccc(Cl)cc5)n4)cc3)n(C[C@@H]3CCO3)c2n1` [Compound 186a, 2-{[4-({2-[(4-chlorophenyl)methyl]pyrimidin-4-yl}oxy)phenyl]methyl}-3-{[(2S)-oxetan-2-yl]methyl}-3H-imidazo[4,5-b]pyridine-5-carboxylic acid], the EC50 under setting [1] is 0.6 nM.

With `O=C(O)c1ccc2nc(Cc3ccc(Oc4ccnc(Cc5ccc(Cl)cc5)n4)cc3)n(C[C@@H]3CCO3)c2c1` [Compound 187a, 2-{[4-({2-[(4-chlorophenyl)methyl]pyrimidin-4-yl}oxy)phenyl]methyl}-1-{[(2S)-oxetan-2-yl]methyl}-1H-1,3-benzodiazole-6-carboxylic acid], the EC50 under setting [1] was 1.3 nM.

Turning to `O=C(O)c1ccc2nc(C[C@H]3CC[C@H](Oc4nc(Cc5ccc(Cl)cc5)ncc4F)CC3)n(C[C@@H]3CCO3)c2n1` [Compound 188a, 3-{[(2S)-oxetan-2-yl]methyl}-2-{[trans-4-({2-[(4-chlorophenyl)methyl]-5-fluoropyrimidin-4-yl}oxy)cyclohexyl]methyl}-3H-imidazo[4,5-b]pyridine-5-carboxylic acid], under setting [1], the EC50 is 0.045 nM.

On to `O=C(O)c1ccc2nc(Cc3ccc(Oc4nc(Cc5ccc(Cl)cc5)ncc4F)cc3)n(C[C@@H]3CCO3)c2n1` [Compound 189a, 2-{[4-({2-[(4-chlorophenyl)methyl]-5-fluoropyrimidin-4-yl}oxy)phenyl]methyl}-3-{[(2S)-oxetan-2-yl]methyl}-3H-imidazo[4,5-b]pyridine-5-carboxylic acid], for which the EC50 under setting [1] was 0.69 nM.

Take `O=C(O)c1ccc2nc(Cc3ccc(Oc4nc(Cc5ccc(Cl)cc5)ncc4F)cc3F)n(C[C@@H]3CCO3)c2n1` [Compound 190a, 2-{[4-({2-[(4-chlorophenyl)methyl]-5-fluoropyrimidin-4-yl}oxy)-2-fluorophenyl]methyl}-3-{[(2S)-oxetan-2-yl]methyl}-3H-imidazo[4,5-b]pyridine-5-carboxylic acid]: under setting [1], the EC50 is 0.41 nM.

`O=C(O)c1ccc2nc(Cc3ccc(Oc4nc(Cc5ccc(Cl)cc5)ncc4F)cc3F)n(C[C@@H]3CCO3)c2c1` [Compound 191a, 2-{[4-({2-[(4-chlorophenyl)methyl]-5-fluoropyrimidin-4-yl}oxy)-2-fluorophenyl]methyl}-1-{[(2S)-oxetan-2-yl]methyl}-1H-1,3-benzodiazole-6-carboxylic acid]: under setting [1], the EC50 came to 0.29 nM.

Consider `O=C(O)c1ccc2nc(CN3CC=C(c4cnc5ccc(Cc6ccc(Cl)cc6F)nn45)CC3)n(C[C@@H]3CCO3)c2n1` [Compound 192a, 2-[(4-{6-[(4-chloro-2-fluorophenyl)methyl]imidazo[1,2-b]pyridazin-3-yl}-1,2,3,6-tetrahydropyridin-1-yl)methyl]-3-{[(2S)-oxetan-2-yl]methyl}-3H-imidazo[4,5-b]pyridine-5-carboxylic acid], for which the EC50 under setting [1] turned out to be 130 nM.

For `O=C(O)c1ccc2nc(CN3CCC(Oc4ccnc(Cc5ccc(Cl)cc5)n4)CC3)n(Cc3cn[nH]c3)c2n1` [Compound 193, 3-((1H-pyrazol-4-yl)methyl)-2-((4-((2-(4-chlorobenzyl)pyrimidin-4-yl)oxy)piperidin-1-yl)methyl)-3H-imidazo[4,5-b]pyridine-5-carboxylic acid], under setting [1], the EC50 stood at 0.19 nM.

Consider `CCOCCn1c(CN2CCC(Oc3ccnc(Cc4ccc(Cl)cc4)n3)CC2)nc2ccc(C(=O)O)nc21` [Compound 194, 2-((4-((2-(4-chlorobenzyl)pyrimidin-4-yl)oxy)piperidin-1-yl)methyl)-3-(2-ethoxyethyl)-3H-imidazo[4,5-b]pyridine-5-carboxylic acid], for which, under setting [1], the EC50 turned out to be 2.9 nM.

Regarding `COC(C)Cn1c(CN2CCC(Oc3ccnc(Cc4ccc(Cl)cc4)n3)CC2)nc2ccc(C(=O)O)nc21` (stereo not drawn) [Compound 195, 2-((4-((2-(4-chlorobenzyl)pyrimidin-4-yl)oxy)piperidin-1-yl)methyl)-3-(2-methoxypropyl)-3H-imidazo[4,5-b]pyridine-5-carboxylic acid], the EC50 under setting [1] was 0.6 nM.

In the case of `O=C(O)c1ccc2nc(CN3CCC(Oc4ccnc(Cc5ccc(Cl)cc5)n4)CC3)n(C[C@H]3CCOC3)c2n1` [Compound 196a, (R)-2-((4-((2-(4-chlorobenzyl)pyrimidin-4-yl)oxy)piperidin-1-yl)methyl)-3-((tetrahydrofuran-3-yl)methyl)-3H-imidazo[4,5-b]pyridine-5-carboxylic acid], under setting [1], the EC50 was 1.3 nM.

Consider `O=C(O)c1ccc2nc(CN3CCC(Oc4nc(Cc5ccc(Cl)cc5)ncc4F)CC3)n(C[C@H]3CCOC3)c2n1` [Compound 197a, (R)-2-((4-((2-(4-chlorobenzyl)-5-fluoropyrimidin-4-yl)oxy)piperidin-1-yl)methyl)-3-((tetrahydrofuran-3-yl)methyl)-3H-imidazo[4,5-b]pyridine-5-carboxylic acid], for which, under setting [1], the EC50 was 2.5 nM.

`O=c1[nH]c(-c2ccc3nc(CN4CCC(Oc5ccnc(Cc6ccc(Cl)cc6)n5)CC4)n(C[C@@H]4CCO4)c3n2)no1` [Compound 198a, (S)-3-(2-((4-((2-(4-chlorobenzyl)pyrimidin-4-yl)oxy)piperidin-1-yl)methyl)-3-(oxetan-2-ylmethyl)-3H-imidazo[4,5-b]pyridin-5-yl)-1,2,4-oxadiazol-5(4H)-one]: the EC50 under setting [1] came to 0.7 nM.

In the case of `Clc1ccc(Cc2nccc(OC3CCN(Cc4nc5ccc(-c6nnn[nH]6)nc5n4C[C@@H]4CCO4)CC3)n2)cc1` [Compound 199a, (S)-2-((4-((2-(4-chlorobenzyl)pyrimidin-4-yl)oxy)piperidin-1-yl)methyl)-3-(oxetan-2-ylmethyl)-5-(1H-tetrazol-5-yl)-3H-imidazo[4,5-b]pyridine], the EC50 is 0.95 nM under setting [1] and 1 nM under setting [2].

Turning to `NC(=O)c1ccc2nc(CN3CCC(Oc4ccnc(Cc5ccc(Cl)cc5)n4)CC3)n(C[C@@H]3CCO3)c2n1` [Compound 200a, (S)-2-((4-((2-(4-chlorobenzyl)pyrimidin-4-yl)oxy)piperidin-1-yl)methyl)-3-(oxetan-2-ylmethyl)-3H-imidazo[4,5-b]pyridine-5-carboxamide], under setting [1], the EC50 stood at 85 nM.

As to `O=C(O)c1ccc2nc(CN3CC4CC(Oc5ccnc(Cc6ccc(Cl)cc6)n5)CC4C3)n(C[C@@H]3CCO3)c2n1` (stereo partly drawn) [Compound 201a, 2-{[5-({2-[(4-chlorophenyl)methyl]pyrimidin-4-yl}oxy)-octahydrocyclopenta[c]pyrrol-2-yl]methyl}-3-{[(2S)-oxetan-2-yl]methyl}-3H-imidazo[4,5-b]pyridine-5-carboxylic acid], the EC50 under setting [1] amounted to 360 nM.
